The source of these data is patent US20190046627A1, “USE OF A GNP-LLO91-99 COMPLEX FOR THE TREATMENT AND PREVENTION OF CANCER” (FUNDACIÓN INSTITUTO DE INVESTIGACIÓN MARQUES DE VALDECILLA, priority 2016, published 2019).

The test system of experiment [1] is murine melanoma B16F10. The experiment is described as follows: Reduction of the size of the tumor, subcutaneous murine melanoma in adult mice (Example 2). Conditions: adult C57BL/6 mice, s.c. B16F10 established 7 days, 50 μg/ml inoculated in the tumors for 5 days. Format: in vivo. On the procedure: For the study of the reduction of the size of the tumor making use of different therapies and their comparison with that of the invention, 1×10^6 cells of murine melanoma B16F10 were inoculated in a subcutaneous manner in the left ventral flank of 8-12-week old female mice of the C57BL/6 strain.
(§1) After 7 days post-inoculation, 50 μg/ml of the following therapies were inoculated in the tumors for 5 days: LLO91-99 (only peptide from listeriolysin O of Listeria monocytogenes, LLO91-99), GNP (empty gluconanoparticles), GNP-LLO91-99 (gluconanoparticles synthesized with the peptide from listeriolysin O of Listeria monocytogenes, LLO91-99), GNP-GAPDH1-22 (nanoparticles synthesized with the peptide from glyceraldehyde-3-phosphate dehydrogenase of Listeria monocytogenes, GAPDH1-22) or no particle (NT). Dendritic cells loaded with the LLO91-99 (1×10^6 DC-LLO91-99) peptide were also included as a control, a vector previously used in therapy.
(§2) Following this treatment, the mice were sacrificed and the tumors recovered, measuring their size with a gauge.

Experiment [2] relates to murine melanoma B16OVA. The experiment is described as follows: Prevention of tumor growth, intraperitoneal melanoma after preventive treatment (Example 5). The note with it: 50 μg/ml intraperitoneal 7 days before i.p. B16OVA, adult C57BL/6. Format: in vivo, mice. How it is done:
For the comparative study of the prevention of tumor growth in adults between the therapy of the invention and known anti-tumor therapies, the following therapies (50 μg/ml) were inoculated in female adults of the C57BL/6 strain in an intraperitoneal manner: LLO91-99 (only peptide from listeriolysin O of Listeria monocytogenes, LLO91-99), GNP (empty gluconanoparticles), GNP-LLO91-99 (gluconanoparticles synthesized with the peptide from listeriolysin O of Listeria monocytogenes, LLO91-99), GNP-GAPDH1-22 (nanoparticles synthesized with the peptide from glyceraldehyde-3-phosphate dehydrogenase of Listeria monocytogenes, GAPDH1-22) or saline (NT).
Following 7 days preventative post-treatment, the tumors were established following inoculation with 5×10^6 cells of murine melanoma B16OVA in an intraperitoneal manner. Following 7 days post-established of the tumor, the mice were sacrificed and the recovered tumors were measured by means of a gauge and the tumors were analyzed by means of immunohistochemical staining. The results of the reduction of the tumor growth and their intraperitoneal position are shown in FIG. 4A and FIG. 4B and the results of the analysis of the immunohistochemical staining in FIG. 4C.

Experiment [3] concerns murine melanoma B16F10. In words: Reduction of the size of the tumor in newborns (Example 6). The experiment is classed as in vivo. Conditions: 9-day old Balb/c mice, s.c. B16F10 established 5 days, 50 μg/ml in the tumors for 5 days. On the procedure:
For the study of the reduction of the size of the tumor in newborns making use of different therapies and their comparison with that of the invention, 5×10^5 cells of murine melanoma B16F10 were inoculated in a subcutaneous manner in the interscapular area of 9-day old female mice of the Balb/c strain.
as §1, with “Following 5” for “After 7”, “GAPDH1-22). As” for “GAPDH1-22) or no particle (NT). Dendritic cells loaded with the LLO91-99 (1×10^6 DC-LLO91-99) peptide were also included as”, “therapy was also included, dendritic cells loaded with the LLO91-99 (1×10^5 DC-LLO91-99) peptide.” for “therapy.”
as §2

“Also recorded” adds a separate entry of the source.

Turning to “H-Gly-Tyr-Lys-Asp-Gly-Asn-Glu-Tyr-Ile-OH (H-GYKDGNEYI-OH) [LLO91-99, only peptide from listeriolysin O of Listeria monocytogenes, LLO91-99]”, the “therapeutic effect on the melanoma (in words)” value in experiment [1] was “do not achieve any therapeutic effect; also recorded: failed to achieve any therapeutic effect”. Moreover, the “preventative / therapeutic effect on the melanoma (in words)” value in experiment [2] is given as “failed to achieve any therapeutic effect”. Besides, the “therapeutic effect on the melanoma in newborns (in words)” value in experiment [3] is recorded as “failed to achieve any therapeutic effect”.
